From ChEMBL document CHEMBL1149982, “Synthesis and in vitro profile of 7-substituted quinoline chromanols as novel, non-acidic LTB4 antagonists” (Bioorg Med Chem Lett, 1995)

Columns and labels:
[1] = target: T1, Cysteinyl leukotriene receptor 1 (Cavia porcellus, UniProt Q2NNR5); experiment: In vitro inhibitory activity against leukotriene D4 receptor
T1 sequence (Q2NNR5 whole entry): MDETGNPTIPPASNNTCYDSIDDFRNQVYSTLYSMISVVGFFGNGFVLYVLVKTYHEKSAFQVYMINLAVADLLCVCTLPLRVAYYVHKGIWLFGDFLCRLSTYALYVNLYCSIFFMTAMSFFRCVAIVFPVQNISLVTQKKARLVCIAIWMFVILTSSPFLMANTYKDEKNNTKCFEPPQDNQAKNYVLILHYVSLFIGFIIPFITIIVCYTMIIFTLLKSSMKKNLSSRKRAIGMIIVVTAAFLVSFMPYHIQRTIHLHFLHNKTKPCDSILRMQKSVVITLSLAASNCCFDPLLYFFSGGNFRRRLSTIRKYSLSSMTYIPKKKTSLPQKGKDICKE

[2] = target: Leukotriene B4 receptor 1 (Homo sapiens, UniProt Q15722); experiment: In vitro inhibitory activity against human neutrophil leukotriene B4 (LTB4)
[3] = target: T1, Cysteinyl leukotriene receptor 1; experiment: In vitro inhibitory activity against human leukotriene D4 (LTD4)

Leukotriene B4 receptor 1, sequence (Q15722 whole entry): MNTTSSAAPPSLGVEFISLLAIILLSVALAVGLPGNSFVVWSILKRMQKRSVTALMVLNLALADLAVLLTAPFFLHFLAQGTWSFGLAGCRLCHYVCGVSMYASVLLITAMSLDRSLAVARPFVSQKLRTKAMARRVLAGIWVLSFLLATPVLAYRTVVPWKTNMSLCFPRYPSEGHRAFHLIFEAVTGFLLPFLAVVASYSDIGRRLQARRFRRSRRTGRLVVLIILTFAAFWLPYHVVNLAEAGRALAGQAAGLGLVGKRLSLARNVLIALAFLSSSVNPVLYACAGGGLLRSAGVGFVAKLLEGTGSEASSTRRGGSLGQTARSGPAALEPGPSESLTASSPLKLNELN

Compound | Ki [1] [µM] | Ki [2] [µM] | Ki [3] [µM]
C[C@H](Oc1ccc2c(c1)OC[C@@H](Cc1cccnc1)[C@@H]2O)c1ccc2ccccc2n1 | > 50 | 1.9 | –
CC(Oc1ccc2c(c1)OC[C@H](Cc1ccccn1)[C@@H]2O)c1ccc2ccccc2n1 (stereo partly specified) | > 50 | 3.3 | –
C[C@@H](Oc1ccc2c(c1)OC[C@@H](Cc1cccnc1)[C@@H]2O)c1ccc2ccccc2n1 | > 50 | 0.33 | –
O[C@@H]1c2cc(OCc3ccc4ccccc4n3)ccc2OC[C@@H]1Cc1cccnc1 | – | 38 | 1.6
CC(Oc1ccc2c(c1)OC[C@H](Cc1cccnc1)[C@@H]2O)c1ccc2ccccc2n1 (stereo partly specified) | > 50 | 5.2 | –

Further lines, results first:

Ki [1] [µM] | Ki [2] [µM] | Ki [3] [µM] | Compound
> 50 | 0.24 | – | CC(Oc1ccc2c(c1)OC[C@@H](Cc1ccccn1)[C@@H]2O)c1ccc2ccccc2n1 (stereo partly specified)
1.3 | – | – | O[C@@H]1c2ccc(OCc3ccc4ccccc4n3)cc2OC[C@@H]1Cc1cccnc1
4.1 | – | – | O[C@@H]1c2ccc(OCc3ccc4ccccc4n3)cc2OC[C@H]1Cc1cccnc1
1 | 16 | – | O[C@@H]1c2cc(OCc3ccc4ccccc4n3)ccc2OC[C@H]1Cc1cccnc1
